From PMC12095047, “Transport of phenoxyacetic acid herbicides by PIN-FORMED auxin transporters” (Nature Plants, 2025)
“And” between values parts separate entries of the source, which are not always exact repeats. Identical values can stand only once. Like-named read-outs stand apart in the source and are kept apart here.

Legend:
[1] = molecular target: T1, PIN8 (Arabidopsis thaliana, UniProt Q9LFP6); test: SSM electrophysiology, KD by inhibition of the NPA binding current
T1 construct: made in house
T1 sequence (Q9LFP6 1-367): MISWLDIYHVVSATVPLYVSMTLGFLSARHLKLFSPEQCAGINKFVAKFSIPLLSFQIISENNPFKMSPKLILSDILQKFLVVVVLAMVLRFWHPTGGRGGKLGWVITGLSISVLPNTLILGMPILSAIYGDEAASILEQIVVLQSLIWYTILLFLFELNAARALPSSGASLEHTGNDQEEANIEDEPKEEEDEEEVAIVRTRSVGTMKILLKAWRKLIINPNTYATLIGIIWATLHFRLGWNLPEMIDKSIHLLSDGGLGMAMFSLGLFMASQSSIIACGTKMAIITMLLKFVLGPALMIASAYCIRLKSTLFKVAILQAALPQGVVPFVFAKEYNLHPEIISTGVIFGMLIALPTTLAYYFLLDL

[2] = molecular target: T2, PIN8 Y150A (Arabidopsis thaliana, UniProt Q9LFP6, Y150A); format: biochemical; conditions: for Peak current: Y150A, individual sensors
T2 construct: made in house

[3] = molecular target: T3, PIN8 S266A (Arabidopsis thaliana, UniProt Q9LFP6, S266A); format: biochemical; conditions: PIN8 S266A, Michaelis–Menten fit
T3 construct: made in house

[4] = molecular target: T4, PIN8 S55A (Arabidopsis thaliana, UniProt Q9LFP6, S55A); format: biochemical; conditions: for Peak current: S55A, individual sensors
T4 construct: made in house

[5] = molecular target: T5, PIN8 Y150F (Arabidopsis thaliana, UniProt Q9LFP6, Y150F); format: biochemical; conditions: PIN8 Y150F, Michaelis–Menten fit
T5 construct: made in house

[6] = molecular target: T6, PIN8 S55A/S146A (Arabidopsis thaliana, UniProt Q9LFP6, S146A/S55A); format: biochemical; conditions: Michaelis–Menten fit
T6 construct: made in house

[7] = molecular target: T7, PIN8 S146A (Arabidopsis thaliana, UniProt Q9LFP6, S146A); format: biochemical; conditions: for Peak current: S146A, individual sensors
T7 construct: made in house

[8] = molecular target: T8, PIN8 I51Y (Arabidopsis thaliana, UniProt Q9LFP6, I51Y); format: biochemical; conditions: Michaelis–Menten fit
T8 construct: made in house

[9] = molecular target: T9, PIN8 N223A (Arabidopsis thaliana, UniProt Q9LFP6, N223A); format: biochemical; conditions: N223A
T9 construct: made in house

[10] = read-out: EC50 of peak current response

T7 sequence (Q9LFP6 whole entry S146A): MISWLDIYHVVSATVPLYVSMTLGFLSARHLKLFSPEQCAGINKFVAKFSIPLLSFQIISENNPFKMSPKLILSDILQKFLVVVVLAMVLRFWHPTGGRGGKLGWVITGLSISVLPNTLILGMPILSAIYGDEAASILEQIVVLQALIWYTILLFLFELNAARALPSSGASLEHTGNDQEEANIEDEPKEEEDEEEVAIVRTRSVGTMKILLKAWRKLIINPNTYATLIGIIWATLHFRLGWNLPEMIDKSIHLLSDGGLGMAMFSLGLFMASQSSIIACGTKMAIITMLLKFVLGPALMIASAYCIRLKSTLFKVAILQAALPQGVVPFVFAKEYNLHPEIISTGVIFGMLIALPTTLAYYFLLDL
T4 sequence (Q9LFP6 whole entry S55A): as the sequence (Q9LFP6 whole entry S146A) above, with S55A, A146S counted along it
T2 sequence (Q9LFP6 whole entry Y150A): as the sequence (Q9LFP6 whole entry S146A) above, with A146S, Y150A counted along it
T8 sequence (Q9LFP6 whole entry I51Y): as the sequence (Q9LFP6 whole entry S146A) above, with I51Y, A146S counted along it
T5 sequence (Q9LFP6 whole entry Y150F): as the sequence (Q9LFP6 whole entry S146A) above, with A146S, Y150F counted along it
T6 sequence (Q9LFP6 whole entry S55A/S146A): as the sequence (Q9LFP6 whole entry S146A) above, with S55A counted along it
T3 sequence (Q9LFP6 whole entry S266A): as the sequence (Q9LFP6 whole entry S146A) above, with A146S, S266A counted along it
T9 sequence (Q9LFP6 whole entry N223A): as the sequence (Q9LFP6 whole entry S146A) above, with A146S, N223A counted along it

O=C(O)COc1ccc(Cl)cc1Cl [2,4-D, 2,4-dichlorophenoxyacetic acid]
Kd ([1]; Peak current, sheet F2A (Fig. 2a, KD of substrate binding), individual sensors): 64.4 µM and 50.6 µM and 62.3 µM
Kd ([1]; inhibition of peak current elicited by 100 µM NPA, read-out: KD of substrate binding by PIN8): 59 ± 7 µM
inhibition at 20 µM ([1]; read-out: Rel. Inhibition of NPA peak currents, 20 µM substrate, 100 µM NPA, individual sensors): 22.5%
inhibition at 50 µM ([1]; read-out: Rel. Inhibition of NPA peak currents, 50 µM substrate, 100 µM NPA, individual sensors): 46.2%
inhibition at 100 µM ([1]; read-out: Rel. Inhibition of NPA peak currents, 100 µM substrate, 100 µM NPA, individual sensors): 65.6%
inhibition at 250 µM ([1]; read-out: Rel. Inhibition of NPA peak currents, 250 µM substrate, 100 µM NPA, individual sensors): 83.2%
inhibition at 500 µM ([1]; read-out: Rel. Inhibition of NPA peak currents, 500 µM substrate, 100 µM NPA, individual sensors): 91.1%
inhibition at 1000 µM ([1]; read-out: Rel. Inhibition of NPA peak currents, 1000 µM substrate, 100 µM NPA, individual sensors): 95.2%
Imax ([2]; PIN8 Y150A, Michaelis–Menten fit): 5 ± 1 nA
EC50 ([2]; PIN8 Y150A, Michaelis–Menten fit, read-out: EC50 of peak current response): 684 ± 256 µM
Peak current ([2]; 5 µM substrate): 0.1509 nA and 0.05154 nA and 0.05368 nA and 0.1258 nA
Peak current ([2]; 20 µM substrate): 0.08307 nA and 0.2336 nA and 0.2155 nA and 0.2901 nA
Peak current ([2]; 50 µM substrate): 0.3395 nA and 0.5519 nA and 0.4679 nA and 0.5665 nA
Peak current ([2]; 100 µM substrate): 0.6832 nA and 0.8682 nA and 0.7895 nA and 0.907 nA
Peak current ([2]; 500 µM substrate): 2.171 nA and 2.337 nA and 2.071 nA and 2.343 nA
Peak current ([2]; 1000 µM substrate): 3.151 nA and 3.173 nA and 2.762 nA and 3.101 nA
Peak current ([2]; 2000 µM substrate): 4.437 nA and 4.148 nA and 3.583 nA and 4.038 nA
Imax [3]: 12 ± 0.7 nA
EC50 [3, 10]: 774 ± 70 µM
Imax ([4]; PIN8 S55A, Michaelis–Menten fit): 6 ± 0.6 nA
EC50 ([4]; PIN8 S55A, Michaelis–Menten fit, read-out: EC50 of peak current response): 95 ± 36 µM
Peak current ([4]; 5 µM substrate): 0.5771 nA and 0.4543 nA and 0.3145 nA and 0.4609 nA
Peak current ([4]; 20 µM substrate): 1.612 nA and 1.263 nA and 1.114 nA and 1.2922 nA
Peak current ([4]; 50 µM substrate): 2.6274 nA and 2.193 nA and 2.012 nA and 0.000174 nA
Peak current ([4]; 100 µM substrate): 3.62 nA and 3.055 nA and 2.8112 nA and 3.289 nA
Peak current ([4]; 500 µM substrate): 5.907 nA and 5.083 nA and 4.589 nA and 5.296 nA
Peak current ([4]; 1000 µM substrate): 6.235 nA and 5.542 nA and 4.855 nA and 5.533 nA
Peak current ([4]; 2000 µM substrate): 6.017 nA and 5.654 nA and 4.774 nA and 5.542 nA
Imax [5]: 8 ± 2 nA
EC50 [5, 10]: 816 ± 275 µM
Imax [6]: 9 ± 2 nA
EC50 [6, 10]: 38 ± 6 µM
Imax ([7]; PIN8 S146A, Michaelis–Menten fit): 8 ± 0.9 nA
EC50 ([7]; PIN8 S146A, Michaelis–Menten fit, read-out: EC50 of peak current response): 164 ± 67 µM
Peak current ([7]; 5 µM substrate): 0.446 nA and 0.486 nA and 0.471 nA and 0.573 nA
Peak current ([7]; 20 µM substrate): 1.337 nA and 0.845 nA and 1.226 nA and 1.49 nA
Peak current ([7]; 50 µM substrate): 2.387 nA and 1.739 nA and 2.167 nA and 2.694 nA
Peak current ([7]; 100 µM substrate): 3.422 nA and 2.581 nA and 3.052 nA and 3.828 nA
Peak current ([7]; 500 µM substrate): 6.088 nA and 4.842 nA and 5.334 nA and 6.787 nA
Peak current ([7]; 1000 µM substrate): 7.15 nA and 6.069 nA and 6.109 nA and 7.864 nA
Peak current ([7]; 2000 µM substrate): 8.119 nA and 7.96 nA and 6.88 nA and 9.033 nA
Imax [8]: 3 ± 0.8 nA
EC50 [8, 10]: 641 ± 77 µM
fold-change difference to the respective EC50 of wildtype PIN8 [9]: completely abolishes binding
